Read-outs that look alike come from different tables or passages of the source.
Legend:
rat Su5416/Hx PAH model = assay: Rat SuHx (Su5416/hypoxia)-induced PAH model (hemodynamics, histomorphometry, IHC); type: in vivo
Experimental: SuHx-induced Pulmonary Arterial Hypertension: Sprague-Dawley rats were obtained from Charles River Laboratories (200-300 g; vehicle control, n=5; all other groups, n=10). Rats received Semaxinib dissolved in DMSO on day 0, followed by housing in low (13%) oxygen until day 28. Sildenafil (30 mg/kg/dose; BID), Riociguat (10 mg/kg, QD) or Palbociclib (100 mg/kg; QD) was administered in vehicle (0.5% methylcellulose) from days 7-28. Terminal hemodynamic evaluations and necropsy were conducted on day 28 in a manner similar to the MCT study.
Hemodynamic measurements Su/Hx study: On day 28, animals were anesthetized via intramuscular injection of ketamine/xylazine (80/10 mg/kg). A Millar catheter was inserted into the pulmonary artery and pulmonary pressure and hemodynamics were measured as described by Stringer et al., (1981) Catheterization of the pulmonary artery in the closed-chest rat. J. Appl. Physiol. 51, 1047-1050. Hemodynamic values were calculated using the NOTOCORD-Hem software (NOTOCORD, Inc., Croissy sur Sienne, France) (CorDynamics).
Measurement of RV hypertrophy. After collection of the heart at necropsy, the atria and great vessels were removed. The RV was separated from the LV and S. The wet weights of the RV and LV+S were measured to calculate the Fulton Index.
Tissue preparation. Under anesthesia, the animals were exsanguinated, and the pulmonary circulation flushed with oxygenated (animals from Example 3 [MCT]) or heparizined (animals from Example 4 [Su5416/Hx]) saline. Trachea, lungs, and heart were removed intact from thoracic cavity and placed in ice-cold saline. Right lung lobes were removed, weighed, and immediately flash frozen in liquid nitrogen. A 10 mL syringe filled with fixative (10% NBF) with attached blunt tip needle (20 g) was used to inflate the left lung lobe and the airway was tied off to keep it consistently expanded. The left lung was then immersion fixed in 10% NBF for 48 hrs and then transferred to 70% EtOH for ≤5 days.
Histomorphometric analysis. Three, 3-5 μm thick, transverse sections of the left lung lobe were used for histomorphometric analysis. Overall disease severity scores were determined by light microscopic evaluation of hematoxylin and eosin (H&E)-stained lung sections by a board-certified veterinary pathologist. Scores ranged from 0 (absent), 1 (minimal), 2 (mild), 3 (moderate), 4 (marked) to 5 (severe) and were assigned according to the approximate percentage of the tissue affected by the tissue changes (inflammatory, degenerative, vascular and/or proliferative) characteristic of the PAH model. Average vessel wall thickness was evaluated using lung sections prepared with a modified Verhoeff-van Gieson elastin stain. Image analysis was performed using random field sampling (Visiopharm newCAST) of 10% of tissue area with observer-assisted identification of intra-acinar and pre-acinar vessels and application of a nucleator probe to measure vessel wall thickness. Fully muscularized intra-acinar vessel density was evaluated in a similar manner using dual αSMA/Ki67 IHC-stained sections and observer-assisted counting of ≥70% muscularized (i.e. SMA^+), transversely sectioned, ≤50 μm external diameter, intra-acinar vessels with an identifiable lumen. Vessel-associated Ki67^+ and pRb^+ cells were counted in αSMA/Ki67 IHC-and CD31/pRb IHC-stained lung sections, respectively, using random field sampling of 10% of tissue area and observer-assisted identification of Ki67^+ or pRb^+ cells associated with the walls (i.e. in the intima or media) of vessels 100 μm external diameter.
Immunohistochemistry. Dual α-SMA/Ki67 nuclear antigen: All IHC steps were performed on 3 μm-thick, formalin-fixed, paraffin-embedded (FFPE) sections on Leica Bond Rx automated immunohistochemistry stainer. The instrument was programmed to bake and dewax the slides. […]

rPASMC = assay: EdU cell proliferation assay, rPASMC; type: cell-based; details: Rattus norvegicus, 5% FBS, N = 6, FIG. 1g, read-out: rPASMC IC50 (nM), inhibition of proliferation
Experimental: Alternatively, rather than using BrdU, EdU (5-ethynyl-2′-deoxyuridine) can be used. Cells were first pre-incubated with different concentrations of the CDK inhibitor for 30 minutes, and then 5% FBS was added to stimulate cell proliferation. Cells were maintained for 24 h before the proliferation rate was evaluated using EDU Click-iT EdU Alexa Fluor® 647 HCS Assay (Thermofisher Scientific, USA). EdU was added to the medium 16 h before the quantification of EdU incorporation. Proliferation was quantified by scanning the 96-well plates using automated high content imaging platform equipped with appropriate fluorescence microscopic filters for DAPI (4′,6-Diamidino-2-Phenylindole) or Hoechst stain and Cyanine5 dyes as part of the Click-iT assay. Proliferating EdU positive cells detected at Cyanine5 were quantified and normalized to total cell number per well where the total cell number per cell was identified by DAPI or Hoechst signal. The % effect was then calculated:
The average (avg) amount (amt) of proliferating cells per concentration of CDK inhibitor with FBS present.
The minimum amount of proliferation (min amt of prolif'n) is based on cell numbers in the wells where FBS is not added and no CDK inhibitor is present.
The maximum amount of proliferation (max amt of prolif'n) is based on cell numbers in the wells where FBS is added and no CDK inhibitor is present.

human primary PASMCs = assay: BrdU cell proliferation assay, human primary PASMCs; type: cell-based; details: PASMC
Experimental: Cell proliferation assay. Primary PASMCs and PAAFs from normal human subjects (ScienCell Research Laboratories, San Diego, Calif., USA) and rat primary PASMCs (Cell Applications, San Diego, Calif., USA) were plated in CellBIND® 96-well plates in Dulbecco's modification of Eagle's medium (DMEM) containing 5% fetal bovine serum (FBS), and serum-starved for 24 h in DMEM containing 0.1% FBS. Cells were first pre-incubated with different concentrations of palbociclib (in triplicates) for 30 minutes, and then 30 ng/ml PDGF-BB or 5% FBS was added to stimulate cell proliferation. Cells were maintained for 48 h before the proliferation rate was evaluated using the Cell Proliferation ELISA BrdU (bromodeoxyuridine) Luminescence Kit (Roche Diagnostics, Mannheim, Germany). BrdU was added to the medium 16 h before the quantification of BrdU incorporation. This procedure was use to generate data as presented in at least FIGS. 1a, 1b, 1c, and 1d. IC50 values were calculated for any given inhibitor by determining the concentration of compound needed to inhibit 50% of the response applied to the system. IC50 values were derived from the four parameter logistic equation which was fit to the compound concentration response data.

[1] = days 7 to 28, score scale 0-5, FIG. 4g

CC(=O)c1c(C)c2cnc(Nc3ccc(N4CCNCC4)cn3)nc2n(C2CCCC2)c1=O [Palbociclib, 6-acetyl-8-cyclopentyl-5-methyl-2-{[5-(piperazin-1-yl)pyridin-2yl]amino}pyrido[2,3-d]pyrimidin-7(8H)-one]
vessel-associated Ki67+ cells in the pulmonary vasculature (IHC) (rat Su5416/Hx PAH model; days 7 to 28): fully reversed | vessel-associated pRb+ cells in the pulmonary vasculature (IHC) (rat Su5416/Hx PAH model; days 7 to 28): fully reversed | Fulton Index (rat Su5416/Hx PAH model; days 7 to 28, FIG. 4c): significant reduction | muscularized intra-acinar vessel density relative to vehicle/Su5416/Hx group (rat Su5416/Hx PAH model; days 7 to 28, FIG. 4e): 0.68 x Su5416/Hx | structural changes in the pulmonary vasculature (histomorphometry) (rat Su5416/Hx PAH model; days 7 to 28, FIG. 4f): dramatically improved and in some cases fully normalized | heart weight vs vehicle/Su5416/Hx group (rat Su5416/Hx PAH model; days 7 to 28, FIG. 4j): significant reduction | average vessel wall thickness, intra-acinar and pre-acinar vessels (rat Su5416/Hx PAH model; days 7 to 28, FIG. 4d): significantly reduced | disease severity scores, mean (rat Su5416/Hx PAH model; [1]): 0.25 | disease severity scores, range (rat Su5416/Hx PAH model; [1]): 0-1.5 | hemodynamic endpoints / hemodynamic changes (rat Su5416/Hx PAH model; palbociclib 100 mg/kg/day PO QD days 7 to 28): restored hemodynamic endpoints closer to the non-diseased control group | hemodynamic endpoints / hemodynamic changes (rat Su5416/Hx PAH model; palbociclib 100 mg/kg/day PO QD days 7 to 28, listed as palbociclib): near-complete suppression | IC50 (rPASMC): 19 nM | IC50 (human primary PASMCs; 30 ng/ml PDGF-BB, average of 3, FIG. 1a, read-out: IC50, PDGF-BB induced proliferation of human primary PASMCs): 7.4 nM | IC50 (human primary PASMCs; 5% FBS, average of 3, FIG. 1b, read-out: IC50, proliferation of human primary PASMCs induced by 5% FBS): 7.4 nM

Source: patent US11439646B2, “Anti-proliferative agents for treating PAH” (Pfizer Inc., priority 2016, dated 2022)
